Data on 18 molecules can be found in ChEMBL document CHEMBL1201862, “PubChem BioAssay data set” (2004).

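Cultured in 96-well plates, cells were exposed to test compound for 48 hours across five concentrations. Abbreviation: GI50, concentration required for 50% inhibition of growth.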 Calls of active or inactive are those of the source. Cut-off read from the data, not from the text of the source: active = GI50 up to about 1.1 µM and inactive = higher. Where only a bound is given, the exact number is not on record here.

Some test systems named below: DLD-1; DMS-273; HOP-18; DMS-114; KM-20L2; XF498; SNB-78; LXFL 529; RXF 631.
Holding throughout (assay): NCI-60 cell line screen, 48 h

Turning to `Cc1ccccc1NC(=O)c1cc2cc(/N=N/c3ccccc3C(=O)O)ccc2oc1=O`, the GI50 was 16.7 µM (inactive) with DLD-1; 21 µM (inactive) in the assay with DMS-273; 15 µM (inactive) in the assay on HOP-18; 14.6 µM (inactive) in the assay with DMS-114; 16.9 µM (inactive) in the assay with KM-20L2.
Consider `CCCCOC(=O)NC(=O)c1cn(C2CCCCC2)c(=O)[nH]c1=O`, for which the GI50 with DLD-1 was 36.9 µM (inactive); in the assay on XF498, 54.7 µM (inactive); in the assay on DMS-273 it was > 100 µM (inactive); in the assay on HOP-18, 19.4 µM (inactive); in the assay on SNB-78 it was 36.6 µM (inactive); in the assay on DMS-114 it was 39.8 µM (inactive). For the same molecule, the GI50 with KM-20L2 is 76 µM (inactive); in the assay with LXFL 529 it was 29 µM (inactive).
`N/N=c1\c2ccccc2c2cc3c(cc12)/c(=N/N)c1ccccc13`: the GI50 in the assay with DLD-1, with DMS-273, in the assay with HOP-18, in the assay with SNB-78, with DMS-114 and with RXF 631 was > 100 µM (inactive) in each case. Besides, the GI50 in the assay on KM-20L2 and in the assay on LXFL 529 was > 100 µM (inactive) in each case.
For the molecule `S=c1cc(S)c2c(=S)sc3nc4ccccn4c(=S)c3c2s1`, the GI50 was > 100 µM (inactive) in the assay on DLD-1; > 100 µM (inactive) with XF498; 63.4 µM (inactive) with DMS-273; > 100 µM (inactive) in the assay with HOP-18; > 100 µM (inactive) in the assay with SNB-78; 7.03 µM (inactive) in the assay with DMS-114. Besides, in the assay on KM-20L2, the GI50 is 46.3 µM (inactive).
As for `S=C(N/N=C/c1ccco1)NC12CC3CC(CC(C3)C1)C2`, the GI50 with DLD-1 is > 100 µM (inactive); in the assay on XF498, > 100 µM (inactive); with DMS-273 it was 6.05 µM (inactive); in the assay on HOP-18, > 100 µM (inactive); in the assay with SNB-78 it was > 100 µM (inactive); with DMS-114 it was 37.3 µM (inactive). Moreover, the GI50 is 42.8 µM (inactive) in the assay with KM-20L2 and 52.2 µM (inactive) in the assay with LXFL 529.
On to `Cc1ccc(S(=O)(=O)OCC23CCC(CC2)C2CC23)cc1` (stereo unspecified), for which the GI50 is 74.1 µM (inactive) in the assay with DLD-1; 30.1 µM (inactive) with DMS-273; > 100 µM (inactive) in the assay with HOP-18; 30.5 µM (inactive) in the assay on DMS-114; 73.5 µM (inactive) in the assay on RXF 631; 56.5 µM (inactive) with KM-20L2. The GI50 in the assay on LXFL 529 is 68.2 µM (inactive).
With `CCCCCCCCCCCCCC(=O)OC1C(CO)OC(=O)C1O` (stereo unspecified), the GI50 with DLD-1, in the assay with XF498, in the assay on DMS-273, with HOP-18, with SNB-78 and with DMS-114 was > 100 µM (inactive) throughout. Also, the GI50 in the assay on KM-20L2 and in the assay with LXFL 529 was > 100 µM (inactive) each time.
Take `O=C(O)C1=C(C(=O)Nc2ccc(NC(=O)C3=C(C(=O)O)C4C=CC3C4)cc2)C2C=CC1C2`: the GI50 in the assay with DLD-1, with XF498, in the assay on DMS-273, in the assay with HOP-18, in the assay on SNB-78 and with DMS-114 was > 100 µM (inactive) in each case. Also, the GI50 in the assay on KM-20L2 and in the assay on LXFL 529 was > 100 µM (inactive) throughout.
As for `CC1=C(C(=O)CC(=O)C(=O)NC2C3CC4CC(C3)CC2C4)Sc2ccccc2N1` (stereo unspecified), the GI50 with DLD-1 was > 100 µM (inactive); in the assay with XF498 it was > 100 µM (inactive); in the assay on DMS-273 it was > 100 µM (inactive); in the assay with HOP-18, 86.1 µM (inactive); with SNB-78, > 100 µM (inactive); in the assay on DMS-114, > 31.6 µM (inactive). For the same molecule, the GI50 in the assay on KM-20L2 and with LXFL 529 was > 100 µM (inactive) in each case.
On to `CC(=O)OCC1C(=O)OCC1C(=O)N1Cc2cc3ccccc3nc2C1` (stereo unspecified), for which the GI50 in the assay on DLD-1 was 1.61 µM (inactive); with XF498, 1.82 µM (inactive); in the assay on DMS-273, 5.09 µM (inactive); in the assay with HOP-18 it was 2.47 µM (inactive); in the assay with DMS-114, 13.6 µM (inactive); in the assay with KM-20L2 it was 3.84 µM (inactive). For the same molecule, the GI50 with LXFL 529 was 1.8 µM (inactive).
Turning to `CNc1nnnn1C1OC(CO)C(O)C1O` (stereo unspecified), the GI50 in the assay with DLD-1 is > 100 µM (inactive); with XF498, 14.2 µM (inactive); in the assay on DMS-273 it was > 100 µM (inactive); with SNB-78, > 100 µM (inactive); in the assay on DMS-114, > 100 µM (inactive); with RXF 631 it was > 100 µM (inactive). Besides, the GI50 in the assay with KM-20L2 and in the assay with LXFL 529 was > 100 µM (inactive) each time.
Regarding `Cc1nc2c(n1Cc1ccc(Cl)cc1)C(=O)c1ccccc1C2=O`, the GI50 in the assay on DLD-1 is 4.18 µM (inactive); with XF498 it was 36.4 µM (inactive); in the assay on DMS-273 it was 2.62 µM (inactive); in the assay with SNB-78, 9.42 µM (inactive); in the assay on KM-20L2, 8.05 µM (inactive); in the assay on LXFL 529, 5.47 µM (inactive).
As for `COc1cccc(NC(=O)/C(Cc2nc3ccccc3nc2C)=N/NC(=O)C[n+]2ccccc2)c1`, the GI50 with DLD-1 is > 100 µM (inactive); in the assay with XF498, > 100 µM (inactive); in the assay on DMS-273, 63.4 µM (inactive); with HOP-18, > 100 µM (inactive); in the assay on SNB-78, > 100 µM (inactive); with DMS-114, > 100 µM (inactive). The GI50 in the assay with KM-20L2 and in the assay with LXFL 529 was > 100 µM (inactive) each time.
For `C/C(CC(=O)Nc1ccc(Cl)c(Cl)c1)=N/NC(=O)C[N+](C)(C)C`, the GI50 with DLD-1 is 29.2 µM (inactive); in the assay on XF498, > 100 µM (inactive); in the assay with DMS-273 it was 38.8 µM (inactive); with HOP-18, > 100 µM (inactive); in the assay with SNB-78 it was > 100 µM (inactive); in the assay with DMS-114, 21.5 µM (inactive). For the same molecule, the GI50 in the assay on KM-20L2 and in the assay with LXFL 529 was > 100 µM (inactive) each time.
For `Cn1ccnc1Cn1cc(-c2cccc(-c3cn[nH]c3)c2)cn1`, the GI50 in the assay on DLD-1, in the assay on XF498, in the assay with DMS-273, with SNB-78, in the assay on DMS-114 and in the assay with RXF 631 was > 100 µM (inactive) each time. Also, the GI50 is > 100 µM (inactive) in the assay on KM-20L2 and 99.1 µM (inactive) in the assay with LXFL 529.
As to `COc1cc(C2c3cc4c(cc3[C@@H](OCCN)[C@H]3COC(=O)C23)OCO4)cc(OC)c1O` (stereo partly specified), the GI50 is 1.32 µM (inactive) in the assay with DLD-1; < 0.0347 µM (active) with XF498; 1.77 µM (inactive) in the assay with HOP-18; 3.52 µM (inactive) with SNB-78; 0.0295 µM (active) in the assay on DMS-114; 0.543 µM (active) in the assay on KM-20L2. For the same molecule, the GI50 in the assay on LXFL 529 was 0.776 µM (active).
As for `COc1cc2c(cc1O)CN1CCC23C=C[C@@H](O)CC13` (stereo partly specified), the GI50 was 63 µM (inactive) with DLD-1; 57.4 µM (inactive) in the assay with DMS-273; 71 µM (inactive) with HOP-18; > 100 µM (inactive) with SNB-78; 54.5 µM (inactive) in the assay with DMS-114; > 100 µM (inactive) with KM-20L2. Also, the GI50 with LXFL 529 was 51.3 µM (inactive).
`COC(=O)[C@H]1[C@H]2C[C@@H]3c4[nH]c5cc(OC)ccc5c4CCN3C[C@H]2C[C@@H](OC(=O)c2cc(OC)c(OC)c(OC)c2)[C@@H]1OC` [RESERPINE]: the GI50 in the assay with DLD-1 is 30.5 µM (inactive); in the assay on DMS-273 it was 20 µM (inactive); with DMS-114 it was 15.6 µM (inactive); in the assay on KM-20L2, 16.7 µM (inactive); in the assay on LXFL 529, 14.4 µM (inactive).
